Test results reported in article PMC3793977, “High-Throughput Screening (HTS) and Hit Validation to Identify Small Molecule Inhibitors with Activity against NS3/4A proteases from Multiple Hepatitis C Virus Genotypes” (PLoS ONE, 2013).

How the values were obtained:
full-length NS3/4A [1] = molecular target: T1, full-length NS3/4A (Hepatitis C virus genotype 1b, UniProt Q9WMX2); test: SPR binding assay (dissociation equilibrium constant KD); details: double referenced with blank and unrelated reference protein
T1 construct: wild-type HCV NS3 (HCV polyprotein residues 1027–1657); His-tag (N); made in house
Experimental: The full-length NS3/4A enzyme was prepared in a storage buffer (50 mM HEPES, pH 7.6, 500 mM NaCl, 1 mM DTT, 0.2% Triton X-100, and 20% glycerol) and immobilized on a CM5 sensor chip using standard amine-coupling at 25°C with running buffer HBS-P (10 mM HEPES, 150 mM NaCl, 0.05% surfactant P-20, pH 7.4) using a Biacore T100 instrument. Flow channels 1 and 3 were activated by 1-ethyl-3-(3-dimethylaminopropyl) carbodiimide hydrocholoride (EDC)/N-hydroxy succinimide (NHS) mixture, and the activated surface was blocked by ethanolamine (pH 8.5) as controls. The NS3/4A enzyme was diluted in 10 mM sodium acetate (pH 5.0), and immobilized to flow channel 4 after sensor surface activation with EDC/NHS with a 7 min injection followed by ethanolamine blocking on unoccupied surface area. NS3/4A immobilization level was ∼8,500 response units (RU). An unrelated reference protein (92 kDa) was also immobilized to flow channel 2 as another control to be compared with NS3/4A (74.6 kDa). Fifteen initial hit compounds were prepared as 10 mM DMSO stock solutions. Compound solutions with a series of increasing concentrations (0–200 µM at 1.5-fold dilution) were applied to all four channels at a 10 µL/min flow rate at 25°C. Sensorgrams were analyzed using Biaevaluation software 2.0.3, and response unit difference (ΔRU) values at each concentration were measured during the equilibration phase. Data were either single referenced with a blank (enthanolamine) or double referenced with both blank and reference protein RU values. SigmaPlot 11.0 was used to fit the data to a single rectangular hyperbolic curve to determine KD values. The hyperbola function, y = ymax·x/(KD+x), was used to plot response units and corresponding concentration, where y is the response, ymax is the maximum response, and x is the compound concentration.
Target sequence in this assay (Q9WMX2 1658-1711): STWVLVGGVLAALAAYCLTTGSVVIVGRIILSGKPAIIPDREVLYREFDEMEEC
Target sequence in this assay (Q9WMX2 1027-1657): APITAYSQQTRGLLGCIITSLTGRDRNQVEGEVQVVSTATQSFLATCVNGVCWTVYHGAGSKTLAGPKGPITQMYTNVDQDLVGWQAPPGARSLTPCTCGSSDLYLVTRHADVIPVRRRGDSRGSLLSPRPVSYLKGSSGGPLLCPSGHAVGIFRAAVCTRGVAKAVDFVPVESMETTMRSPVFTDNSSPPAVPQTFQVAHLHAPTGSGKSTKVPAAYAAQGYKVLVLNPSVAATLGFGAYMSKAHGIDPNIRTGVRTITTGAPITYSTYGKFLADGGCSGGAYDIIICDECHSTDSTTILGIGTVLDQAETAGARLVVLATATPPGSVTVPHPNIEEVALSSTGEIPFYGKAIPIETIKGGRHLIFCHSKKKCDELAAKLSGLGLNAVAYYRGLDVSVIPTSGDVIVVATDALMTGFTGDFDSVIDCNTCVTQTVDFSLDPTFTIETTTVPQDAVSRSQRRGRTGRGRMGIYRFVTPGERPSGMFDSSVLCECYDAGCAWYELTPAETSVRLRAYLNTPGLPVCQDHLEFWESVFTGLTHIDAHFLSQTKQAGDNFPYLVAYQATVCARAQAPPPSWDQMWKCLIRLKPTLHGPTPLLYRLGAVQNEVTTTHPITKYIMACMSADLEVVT

full-length NS3/4A [2] = molecular target: T1, full-length NS3/4A; test: Type (mechanism) of enzyme inhibition, kinetic analysis; assay type: biochemical
Experimental: Full-length NS3/4A activity was monitored in the same way as the primary screening with varying concentration of both inhibitor compounds and substrate (0–8 µM). The concentration of compounds varied from 0 to 20 µM at 1.5-fold dilution factor.
Target sequence in this assay (Q9WMX2 1027-1657): as above
Target sequence in this assay (Q9WMX2 1658-1711): as the sequence (Q9WMX2 1658-1711) above

Trypsin = molecular target: T2, Trypsin (Homo sapiens, UniProt P07477); test: Inhibitor selectivity assay, trypsin (fluorometric); assay type: biochemical
T2 construct: purchased Sigma
Experimental: (§1) To test for selectivity, two human serine proteases, Trypsin and Chymotrypsin (Sigma), were tested with the top two hit compounds from HTS using a fluorometric assay. The fluorogenic substrates used in this study were N-benzoyl-L-Arg-7-amido-4-methylcoumarin (Sigma) and N-succinyl-Ala-Ala-Phe-7-amido-4- methylcoumarin (Sigma) for trypsin and chymotrypsin, respectively. All assays were performed in 384-well black plates (Corning) in a total volume of 24 µL of PBS (pH 7.4) buffer containing 0.01% Triton, 0.1 mg/mL BSA, and 2 mM GSH in triplicate. A series of compound concentrations (0 to 200 µM final concentration at 2-fold serial dilution) in 100% DMSO was prepared in a 384-well plate. 20 µL of trypsin (0.01 mg/mL) and chymotrypsin (0.0001 mg/mL) solutions were distributed into wells, and 0.5 µL of varying concentration of compounds were added and incubated for 10 minutes. The enzyme reaction was initiated by adding 5 µL of the substrate (50 µM final concentration), and fluorescence intensity was continuously monitored at excitation/emission wavelengths of 350 nm/460 nm for 10 minutes.

Chymotrypsin = molecular target: T3, Chymotrypsin (Homo sapiens, UniProt P17538); test: Inhibitor selectivity assay, chymotrypsin (fluorometric); assay type: biochemical
T3 construct: purchased Sigma
T3 sequence (P17538 19-263): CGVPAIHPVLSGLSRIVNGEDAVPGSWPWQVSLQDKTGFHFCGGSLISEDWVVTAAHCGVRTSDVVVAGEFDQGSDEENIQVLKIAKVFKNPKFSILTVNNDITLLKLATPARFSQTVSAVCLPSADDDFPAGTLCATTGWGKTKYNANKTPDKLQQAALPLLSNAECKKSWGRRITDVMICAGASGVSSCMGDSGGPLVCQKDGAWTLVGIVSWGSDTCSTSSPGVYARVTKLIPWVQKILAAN
Experimental: as §1

[3] = Microsomal stability assay; assay type: in vitro ADME, mouse
Experimental: A typical incubation mixture (100 µL total volume) for the metabolic stability studies contained 1 µM (final concentration) test compounds, 0.5 mg/mL microsomal protein (pooled Balb/c mouse liver microsomes prepared as described previously), 100 mM Tris-HCl buffer (pH7.4), and NADPH-generating system (5 mM isocitric acid, 0.2 unit/mL isocitric acid dehydrogenase, 5 mM magnesium chloride, 1 mM NADP^+). After pre-incubation at 37°C for 5 minutes, the reactions were started by addition of NADP^+ and further incubated for another 0, 5, 10, and 20 minutes. For control experiments, NADPH and/or liver microsomes were omitted from these incubations. The reactions were terminated by adding 100 µL ice-cold acetonitrile containing phenytoin (1 µM) as an internal standard and kept on ice for 30 minutes, followed by centrifugation at 16,100 g for 15 minutes to obtain the supernatant. Aliquots (5 µL) were then analyzed for substrate disappearance using liquid chromatography-tandem mass spectrometry (Agilent 1200 HPLC interfaced with Applied Biosystems Qtrap 3200) equipped with an electrospray ion source. Chromatographic separation was carried out with a Waters XTerra MS C18 column (2.1×50 mm, 3.5 µm; Agilent Technologies, Santa Clara, CA). The mobile phases consisted of solvent A (0.1% (v/v) aqueous formic acid) and solvent B (acetonitrile). A 250 µL/min flow rate gradient was developed for each test compound over 10 minutes (Table S2 in File S1). Mass detection of test substrates and internal standard were followed in a positive ion mode by examining multiple reaction monitoring (MRM) pairs. The spraying needle voltage was set at 5000 V. Curtain gas was set at 20; gas 1 and gas 2 were set at 45 and 50, respectively; collision assisted dissociation gas was at medium; and the source heater probe temperature was at 500°C. The test compounds were quantified by comparing the ratio of ion currents obtained for the substrates and an internal standards calibration curve. Data acquisition and processing were accomplished using Analyst software (version 1.4.1; Applied Biosystems). Apparent half-lives (t1/2) for the disappearance of parent drugs were calculated from the pseudo-first-order rate constants (ke) obtained by linear regression of plots of log [drug remaining] versus time (GraphPad Prism 5 software, La Jolla, CA) using the equation: t1/2 = 0.693/ke.

Structure (SMILES): Cc1cc(NC(=O)Cc2csc(NS(=O)(=O)c3ccccc3)n2)ccc1Br [Compound 12]
- SPR binding to NS3/4A, double referenced (full-length NS3/4A [1]): specific binding
- Ki (full-length NS3/4A [2]; competitive model, with respect to substrate): 3.5 µM
- mechanism of inhibition (full-length NS3/4A [2]; with respect to the substrate, best fit model): competitive inhibitors
- inhibition at 100 µM (Trypsin; 100 µM compound, read-out: Trypsin % Inh at 100 µM): 28%
- IC50 (Trypsin; human trypsin): > 100 µM
- inhibition at 100 µM (Chymotrypsin; 100 µM compound, read-out: Chymotrypsin % Inh at 100 µM): 19%
- IC50 (Chymotrypsin; human chymotrypsin): > 100 µM
- half-life at 1 µM ([3]; Balb/c, pH 7.4, mouse liver microsomes 0.5 mg/mL, 1 µM compound, NADPH-generating system, read-out: Microsomal stability t1/2): 21.7 min
- microsomal stability ([3]; mouse liver microsomes, rounded values): 22 min
